Where two headings read alike, the source gives them in different places.
What was measured:
[1] = tested on: cystic fibrosis; test: Treatment of cystic fibrosis patients with DNA drops; assay type: in vivo, human; conditions: person, advanced cystic fibrosis, 0.0003 mg per sublingual drop, four times daily
[2] = tested on: respiratory congestion; test: Treatment of patients with respiratory congestion (emphysema, bronchitis, upper respiratory illness, sinusitis); assay type: in vivo, human; conditions: middle-aged person, chronic sinusitis, one sublingual drop (0.0003 mg) four times daily
Protocol: A patient who suffered from emphysema and bronchitis, as diagnosed by their physician, was placed on a dose of 1 drop per day (0.0006 mg/drop) of DNA sublingually.
A person diagnosed with chronic upper respiratory illness was treated with methods according to the invention. Previous antibiotic therapy was unsuccessful in treating their condition. […] They have remained symptom free.
A nurse presented with a severe upper respiratory infection and unproductive respiratory congestion. […] Expectoration was improved and the patient's illness resolved after 4.5 days and no congestion recurred.
A person presented with chronic sinusitis. Four drops of DNA per day were administered.
A person presented with unresolved respiratory congestion. […] The patient was then prescribed four drops of DNA (0.0006 mg/drop) per day.
A person with unproductive upper respiratory congestion was placed on 4 drops of DNA (0.0006 mg/drop) per day. […] In this case, therapy was supplemented with an over-the-counter expectorant.
A person with acute and chronic respiratory disease due to exposure to toxic corrosive materials was treated with methods according to the invention. Prior to such treatment, symptoms, including chronic rhinorrhea, chest congestion and chronic respiratory infections were treated with numerous courses of antibiotics without success. […]

[3] = tested on: heaves (equine COPD); assay type: in vivo, horse
Protocol: According to this example, a quarter horse mare, at least 20 years of age, suffering from symptoms of heaves (equine COPD) for over ten years was treated subcutaneously twice daily with synthetic DNA. Each dose contained 0.0003 mg of poly(dA):poly(dT) synthetic DNA (Sigma) diluted in phenolated saline. […] Specifically, the horse was no longer coughing, nostrils were not flaring, and breathing was less labored. After one week of administering two doses per day, administration was reduced to once per day for two weeks, then given only on an “as needed” basis.
According to this example, a 15 year old gelding (male horse) suffering from heaves (equine COPD) for over two years was treated with synthetic DNA as described in example XXXIX.

| Substance | therapeutic activity after change to synthetic DNA [1] | overall response [2] | time to improvement in condition [2] | improvement ([3]; 15 year old gelding, treated as in example XXXIX) | adverse effects ([3]; in vivo) | condition of the horse ([3]; quarter horse mare, 0.0003 mg subcutaneously twice daily, thirty-six hours after treatment began) | condition of the horse ([3]; 15 year old gelding) | condition of the horse ([3]; quarter horse mare, identical treatment) |
| --- | --- | --- | --- | --- | --- | --- | --- | --- |
| poly(dA):poly(dT) | no decrease in therapeutic activity | improved overall response, including the absence of headaches | ≤ 48 h | Improvement was noted within the first three days | no adverse effects noted | significantly improved |  |  |
| poly(dG):poly(dC) | same results |  |  |  |  |  | significant improvement | significant improvement |
